Patent US8986722B2, “Pest control composition” (priority 2010, dated 2015)

Legend:
[1] = HLB of polyglycerol fatty acid ester, Griffin formula 20(1−S/A); type: physicochemical; conditions: from saponification and acid values
Excerpt: The HLB (Hydrophile-Lipophile Balance) is an index indicating degrees of hydrophilic properties and lipophilic properties of a surfactant and being shown by a numerical value of 0 to 20. […] Therefore, a surfactant having a low HLB is apt to adapt to a hydrophobic system and a surfactant having a high HLB is apt to adapt to a hydrophilic system.
As the HLB value of said polyglycerol fatty acid ester, a numerical value derived from the following calculation method which is an empirical formula by Griffin is applied. In this regard, as the below-described saponification and acid values, values analyzed in accordance with general test procedures of standards for food additives and standards of quasi-drug ingredients are used. HLB value=20(1−S/A)
S: Saponification value for an ester of a surfactant.
A: Acid value of a fatty acid constituting a surfactant.

[2] = Surface tension by Wilhelmy method (plate method); type: physicochemical; conditions: 20° C., 0.1% by mass aqueous solution
Experimental: For surface tension in the present description, a numerical value measured by Wilhelmy method (plate method) is used. The principle of measurement is as described below. When a platinum plate is contacted with the surface of a liquid, the liquid rises along the plate. Then, surface tension acts along the periphery of the plate and a force drawing the plate into the liquid is generated. Thus in the method, this drawing force is measured and the surface tension is measured. Specifically, a 0.1% by mass aqueous solution of a sample nonionic surfactant is made as a measurement sample, which is measured by an automatic surface tension measuring machine (for example, DY-300 automatic surface tension meter, manufactured by Kyowa Interface Science Corp., Ltd.) by Wilhelmy method shown above at a temperature of 20° C. to determine the surface tension. […] The nonionic surfactant has a property to decrease the surface tension of an aqueous solution. For this reason, when an aqueous solution containing this adheres to the surface of another substance, “wettability” at said surface is improved. As a result, a diluent of the present invention composition containing said nonionic surfactant easily adheres to the surface of target pests and the surface of spray-target agricultural crops.

Row | HLB [1] | Molecule | other results
1 | about 5 | decaglycerol heptaoleic acid ester | –
2 | about 2 | tetraglycerol hexaoleic acid ester | –
3 | about 4 | hexaglycerol octaoleic acid ester | –
4 | about 2 | diglycerol tetraoleic acid ester | –
5 | about 4 | diglycerol dioleic acid ester | –
6 | about 5 | decaglycerol octaoleic acid ester | –
7 | 3 | hexaglycerol condensed ricinoleate [SY Glyster CR-500] | HLB ([1]; listed as hexaglycerol-condensed ricinoleic acid ester): about 3
8 | about 5 | tetraglycerol trioleic acid ester | –
9 | about 4 | hexaglycerol hexaoleic acid ester | –
10 | about 2 | tetraglycerol pentaoleic acid ester | –
11 | – | CCCCCCCCOC(=O)CC(C(=O)OCCCCCCCC)S(=O)(=O)O (stereo not drawn) [Newkalgen EP-70G, dioctyl sulfosuccinate] | surface tension [2]: 28 mN/m
12 | about 3 | diglycerol trioleic acid ester | –
13 | about 3 | decaglycerol dodecaoleic acid ester | –
14 | about 4 | hexaglycerol heptaoleic acid ester | –
15 | about 3 | decaglycerol undecaoleic acid ester | –
16 | about 4 | decaglycerol nonaoleic acid ester | –
17 | 3 | polyglycerol condensed ricinoleate [SY Glyster CRS-75] | –
18 | about 4 | tetraglycerol tetraoleic acid ester | –

Row | Molecule | HLB [1] | other results
19 | decaglycerol decaoleate [SY Glyster DAO-7S] | 3.2 | HLB ([1]; listed as decaglycerol decaoleic acid ester): about 4
20 | hexaglycerol pentaoleate [SY Glyster PO-5S] | 4.9 | HLB ([1]; listed as hexaglycerol pentaoleic acid ester): about 5
21 | decaglycerol monocaprate [SY Glyster MCA-750] | 16 | HLB ([1]; listed as decaglycerol monocapric acid ester): about 16
22 | hexaglycerol monooleate [SY Glyster MO-5S] | 11.6 | HLB ([1]; listed as hexaglycerol monooleic acid ester): about 11
23 | decaglycerol erucate [SY Glyster NE-750] | 3.2 | –
24 | diglycerol monooleate [S-FACE O-201P] | 8 | HLB ([1]; listed as diglycerol monooleic acid ester): about 8
25 | tetraglycerol monolaurate [SY Glyster ML-310] | 10.3 | HLB ([1]; listed as tetraglycerol monolauric acid ester): about 10
26 | decaglycerol erucate [SY Glyster OE-750] | 3.7 | –
